Laboratory results as given in US9700531B2, “Composition comprising metformin as active ingredient for preventing or treating inflammatory bowel disease” (CATHOLIC UNIVERSITY INDUSTRY ACADEMIC COOPERATION FOUNDATION, priority 2012, dated 2017).
Entries after “also recorded” stand apart in the source; their conditions may differ.

Experiments:
[1] = tested on: colorectal tissues of the group with an inflammatory bowel disease; experiment: Expression of inflammatory cytokines in colorectal tissues and cells of the large intestine of mouse injected with Metformin; format: in vivo
From the text: FIGS. 6A-6B illustrate the results of measuring the inflammatory cytokine regulations caused by Metformin in the colorectal tissues and colorectal cells of the group with an inflammatory bowel disease.
Furthermore, the expressions of the inflammatory cytokine IL-10 and TGF-b were increased by Metformin.

[2] = tested on: lymph node of the group with an inflammatory bowel disease; experiment: Expression of inflammatory cytokines in lymph node of mouse injected with Metformin; format: in vivo
From the text: FIG. 7 illustrates the result of measuring the inflammatory cytokine regulations caused by Metformin in the lymph node tissues and cells of the group with an inflammatory bowel disease.

[3] = tested on: Th17 cell and regulatory Treg cell in the spleen; experiment: Th17 cells and regulatory Treg cells in spleen of mouse injected with Metformin (confocal assay); format: in vivo
[4] = tested on: spleen cells of a normal mouse group; experiment: ROS measurement by FACs (ROS antibody, FITC) in spleen cells of a normal mouse group; format: cell-based; settings: cells collected at 3 days after treatment
Protocol: The oxidative stress was known to be an important factor involved in the inflammatory responses of various autoimmune diseases. […] Enbrel®) composite and at 3 days later, each cell was collected and reacted with an ROS antibody with a FITC wavelength range, and then, was measured using fluorescence activated cell sorting (FACs).

[5] = tested on: inflammatory bowel disease-induced animal model; experiment: Inflammatory bowel disease animal model (3.5% DSS water for a week): weight, survival, thickness of small intestine, length of large intestine; format: in vivo, C57BL/6(H-2kb) mouse; settings: for thickness of the intestine: Metformin 5 mg oral, Etanercept 100 μg subcutaneous or composite, at 3 days after induction
From the text: The inventors of the present invention first prepared the animal model with an inflammatory bowel disease in order to identify whether the Metformin of the present invention can treat an inflammatory bowel disease. For an experimental animal, a C57BL/6(H-2kb) mouse was used, and to prepare the animal model with an inflammatory bowel disease, the mouse taken with 3.5% dextran sulfate sodium (DSS) water for a week to prepare an animal model with an inflammatory bowel disease.
The inventors divided the experimental animals into an inflammatory bowel disease-induced animal model group, and an inflammatory bowel disease-induced animal model group, which was administered with Metformin, and for the group being administered with Metformin, 5 mg of Metformin was orally administered at 3 days after the disease was induced.

[6] = tested on: spleen cells of a normal mouse group
[7] = tested on: cell line of human large intestine; experiment: Gene expression of inflammatory cytokines in cell line of human large intestine treated with Metformin; format: cell-based
Protocol: The gene expressions of the inflammatory cytokines TNF-α, IL-8, and IL-1b were investigated after the cell line of human large intestine was treated with Metformin.

[8] = tested on: STAT3, mTOR, AMPK, STAT5 in spleen tissue; experiment: Signaling molecules in spleen of mouse administered with Metformin (tissue confocal, spleen cell proteins); format: in vivo
[9] = tested on: spleen cells of a normal mouse group; experiment: ELISA of cytokines in culture media of treated cells of the normal mouse group; format: cell-based; settings: culture media collected at 3 days after treatment
From the text: The inventors treated Metformin and the Metformin-Etanercept (Product Name: Enbrel®) composite to the cells of the normal mouse group to identify the effects of Etanercept (Product Name: Enbrel®) and Metformin on the expression of cytokine.

[10] = 5 mg Metformin orally 3 days after induction, versus control group
[11] = 5 mg Metformin orally, the words describe the control group relative to the Metformin group

## CN(C)C(=N)NC(=N)N [Metformin]
[1]
  expression of IL-6 in colorectal tissues (histological findings): considerable decrease
  expression of IL-8 in colorectal tissues (histological findings): considerable decrease
  expression of IL-17 in colorectal tissues (histological findings): considerable decrease
  expression of TNF-α in colorectal tissues (histological findings): considerable decrease
  gene expressions of the inflammatory cytokines in the cells of the large intestine: considerably inhibited
[1]; large intestine
  Foxp3 (regulatory T cell factor): increased
  expression of IL-10: increased
  expression of TGF-b: increased
[2]
  gene expression of IL-6 in lymph node: considerable decreases
  gene expression of IL-17 in lymph node: considerable decreases
  gene expression of IL-21 in lymph node: considerable decreases
  gene expression of TNF-α in lymph node: considerable decreases
[3]
  expressions of Th17 cells in spleen: considerably inhibited
  regulatory T cells that express Foxp3 in spleen: significantly increased
[4]
  ROS inhibition: no ROS inhibitory effect; also recorded: no effects of ROS inhibition
[5]; [10]
  survival rates (in words): higher survival rates
  weights (in words): increase in weights
[5]; 5 mg Metformin orally at 3 days after disease induction, control group had low survival rate
  survival rate: 100%
[5]; [11]
  length of large intestine (histological findings): shortened length was observed
  thickness of small intestine (histological findings): narrower than the group treated with Metformin
[5]; versus control group
  thickness of the intestine: thicker
[6]
  toxic effects (MTT assay): no toxic effects
[7]
  gene expression of IL-1b: inhibited in a Metformin concentration dependent manner
  gene expression of IL-8: inhibited in a Metformin concentration dependent manner
  gene expression of TNF-α: inhibited in a Metformin concentration dependent manner
[8]; spleen cell proteins
  activated AMPK: increased
  phosphorylated STAT3, 705, and 727: significantly inhibited
[8]; tissue confocal
  activity of STA3 in spleen cells: considerably inhibited
  activity of mTOR in spleen cells: considerably inhibited
[8]; tissue confocal, spleen
  cells with the activated AMPK: increased
  cells with the activated STAT5: increased
[9]
  expression of IL-17 (ELISA): effective in inhibiting

## Etanercept
[4]
  ROS inhibition: no ROS inhibitory effect; also recorded: no effects of ROS inhibition
[5]; versus control group
  thickness of the intestine: thicker
[6]
  toxic effects (MTT assay): no toxic effects
[9]
  expression of IL-17 (ELISA): effective in inhibiting
